Our source for the relative viability values is the supplement of paper PMC10307832.

Common to all, as to test: relative viability (nuclei count vs DMSO), 5 days (fraction); higher = more cells survive
Compound in the experiment “Lapatinib + OSI-027”: CS(=O)(=O)CCNCc1ccc(-c2ccc3ncnc(Nc4ccc(OCc5cccc(F)c5)c(Cl)c4)c3c2)o1 [Lapatinib] + COc1cccc2cc(-c3nc([C@H]4CC[C@H](C(=O)O)CC4)n4ncnc(N)c34)[nH]c12 [OSI-027] (partner 0.5 µM)
The gist of the method:
(§1)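 A single step with final 0.05% Triton X-100, 1% formaldehyde and 1 ug/ml Hoechst fixed the cells and stained nuclei 5 days after treatment. Lung cancer cell lines in 1536-well plates had been treated by pin tool the day after seeding with one drug alone or a fixed anchor-drug dose plus five library-drug doses (not always all listed) in √10 steps, and nuclei were counted on 4× images. Relative viability is the ratio of nuclei in treated wells to nuclei in vehicle wells, taken as the median of duplicate plates.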

Compound in the experiment “Wnt-C59 + Olaparib”: CC1=NC=CC(=C1)C2=CC=C(C=C2)CC(=O)NC3=CC=C(C=C3)C4=CN=CC=C4 [Wnt-C59] + O=C(c1cc(Cc2n[nH]c(=O)c3ccccc23)ccc1F)N1CCN(C(=O)C2CC2)CC1 [Olaparib] (partner 8 µM)
The method, boiled down:
as §1

Compound in the experiment “Lapatinib + Navitoclax”: CS(=O)(=O)CCNCc1ccc(-c2ccc3ncnc(Nc4ccc(OCc5cccc(F)c5)c(Cl)c4)c3c2)o1 [Lapatinib] + CC1(C)CCC(c2ccc(Cl)cc2)=C(CN2CCN(c3ccc(C(=O)NS(=O)(=O)c4ccc(N[C@H](CCN5CCOCC5)CSc5ccccc5)c(S(=O)(=O)C(F)(F)F)c4)cc3)CC2)C1 [Navitoclax] (partner 0.5 µM)
The gist of the method:
as §1

Compound in the experiment “Lapatinib + Linsitinib”: CS(=O)(=O)CCNCc1ccc(-c2ccc3ncnc(Nc4ccc(OCc5cccc(F)c5)c(Cl)c4)c3c2)o1 [Lapatinib] + C[C@]1(O)C[C@@H](c2nc(-c3ccc4ccc(-c5ccccc5)nc4c3)c3c(N)nccn32)C1 [Linsitinib] (partner 1 µM)
The method, boiled down:
as §1

In the case of UMC-11, the relative viability was 0.461 with Lapatinib + OSI-027 (first compound 0.02 µM); 0.427 with Lapatinib + OSI-027 (first compound 0.06325 µM); 0.582 with Lapatinib + OSI-027 (first compound 0.2 µM); 0.464 in the experiment with Lapatinib + OSI-027 (first compound 0.6325 µM); 0.465 in the experiment with Lapatinib + OSI-027 (first compound 2 µM); 0.793 with Wnt-C59 + Olaparib (first compound 0.001 µM). The relative viability came to 0.378 with Wnt-C59 + Olaparib (first compound 0.01 µM); 0.479 with Wnt-C59 + Olaparib (first compound 0.03162 µM); 0.415 with Wnt-C59 + Olaparib (first compound 0.1 µM); 0.352 with Lapatinib + Navitoclax (first compound 0.02 µM); 0.278 with Lapatinib + Navitoclax (first compound 0.06325 µM); 0.311 with Lapatinib + Navitoclax (first compound 0.2 µM). For the same cell line, the relative viability with Lapatinib + Navitoclax (first compound 0.6325 µM) came to 0.318; in the experiment with Lapatinib + Navitoclax (first compound 2 µM), 0.314; in the experiment with Lapatinib + Linsitinib (first compound 0.02 µM), 1; with Lapatinib + Linsitinib (first compound 0.06325 µM), 0.964; with Lapatinib + Linsitinib (first compound 0.2 µM), 1.11; with Lapatinib + Linsitinib (first compound 0.6325 µM), 0.985. Moreover, in the experiment with Lapatinib + Linsitinib (first compound 2 µM), the relative viability is 1.02.
